Earlier results on 1 compound are cited in US20030004142A1, “Use of NSAIDs for prevention and treatment of cellular abnormalities of the lung or bronchial pathway” (priority 2001, published 2003).

The test system of data set [1] is OPC cell lines. The settings on record: all OPC cell lines tested.
Data set [2] relates to OPC cell lines. The settings on record: all OPC cell lines tested. The source holds these as a separate data set.

`O=C(c1ccccc1)c1ccc2n1CCC2C(=O)O` (stereo not shown) [ketorolac, (.+−.)5(benzoyl)-2,3-dihydro-1H-pyrrolizine-1carboxylic acid]: in the data set with OPC cell lines [1], the IL-6 levels entry was “continuously and significantly decreased”; the IL-8 levels result was “continuously and significantly decreased”. Also, the “OPC growth in vivo” value in the data set on OPC was “reduced OPC growth in vivo”. In addition, in the data set on OPC cell lines [2], the PGE2 production entry is “continuously and significantly decreased”.
